Reference: article PMC13083723 (Patterns, 2026)

Tested on: Vero-E6 cells
Assay: cells
Assay type: cell-based
Settings: Chlorocebus sabaeus, Vero C1008, 24 h, read-out: PL_Result

Structure (SMILES)	activation at 10 µM
O=C(Oc1ccccc1C(=O)O)c1ccccc1O [SPE_K48892307]	-11.6%
CCN(CC)CC1CCCCN1CC(=O)N1c2ccccc2C(=O)Nc2cccnc21 (centres unmarked) [SPE_A00520476]	-3.51%
OC[C@H]1O[C@@H](OCCc2ccc(O)cc2)[C@H](O)[C@@H](O)[C@@H]1O [SPE_K66030860]	-4.58%
Cn1ncnc1COc1nn2c(-c3cc(F)ccc3F)nnc2cc1C(C)(C)C [SPE_K46647427]	-14.8%
C[C@@H]1CN(Cc2ncccn2)C[C@H]1c1nc2c(cnn2C2CCOCC2)c(=O)[nH]1 [SPE_K50031829]	-10.7%
C[C@H](NC(=O)/C(C#N)=C/c1ccc(O)c(O)c1)c1ccccc1 [SPE_K17415526]	-1.61%
O=S(=O)(NCC1CC1)c1ccc(Nc2nccc(N3CCCc4cc(O)ccc43)n2)cc1 [SPE_K94659840]	3.48%
Nc1ncnc2c1c(-c1ccc(Cl)cc1)nn2-c1cccc(-c2cnnn2Cc2cccc(-c3ccccc3)c2)c1 [SPE_K88154110]	-7.24%
c1ccc(C2CC2)c(OCC2=NCCN2)c1 [SPE_K54142781]	-12.4%
CC(=O)OCC(=O)[C@@]1(O)CCC2C3CCC4=CC(=O)CC[C@]4(C)C3[C@@H](O)C[C@@]21C (some centres unmarked) [SPE_A65767837]	-13.7%
Oc1cc2c(cc1O)CN(C(=S)NCCc1ccc(Cl)cc1)CCC2 [SPE_K44849676]	-5.94%
COc1cc2c(cc1OC)[C@@]13CCN4CC5=CCOC6CC(=O)N2C1[C@H]6[C@H]5C[C@H]43 (some centres unmarked) [SPE_A41995253]	1.19%
NC(Cc1c[nH]c2ccc(O)cc12)C(=O)O (centres unmarked) [SPE_A73930134]	-6.97%
O=c1c(O)c(-c2cc(O)c(O)c(O)c2)oc2cc(O)cc(O)c12 [SPE_K43149758]	-18.6%
CC(=O)c1ccc(S(=O)(=O)NC(=O)NC2CCCCC2)cc1 [SPE_K52960356]	6.72%
CCCCc1nc(C)c(CC(=S)N(C)C)c(=O)n1Cc1ccc(-c2ccccc2-c2nnn[nH]2)cc1 [SPE_K21586122]	-5.47%
COc1ccc(OC)c(C2C(C#N)=C(N)Oc3[nH]nc(-c4ccc5ccccc5c4)c32)c1 (centres unmarked) [SPE_A67036568]	-6.11%
NC1CCN(c2c(F)cc3c(=O)c(C(=O)O)cn(C4CC4)c3c2Cl)C1 (centres unmarked) [SPE_A93964801]	-2.8%
C[C@H]1CO[C@@H]2Cn3cc(C(=O)NCc4ccc(F)cc4F)c(=O)c(O)c3C(=O)N12 [SPE_A95114378]	-1.46%
O=C1NC(=S)NC(=O)C1C(=O)Nc1ccccc1 [SPE_K45152786]	-1.42%
O=c1n(CCCN2CCN(c3cccc(Cl)c3)CC2)nc2ccccn12 [SPE_K70778732]	-8.41%
CCN1C(=O)NC(c2ccccc2)C1=O (centres unmarked) [SPE_A30205217]	-4.7%
COc1cc(OC)c(OC)cc1C=O [SPE_K88219015]	-0.692%
N[C@@H](CC(=O)N1CCn2c(nnc2C(F)(F)F)C1)Cc1n[nH]c2c(F)c(F)ccc12 [SPE_K04035716]	-1.31%
CCCCCCCCCCC(=O)O[C@H]1CC[C@H]2[C@@H]3CCC4=CC(=O)CC[C@]4(C)[C@H]3CC[C@]12C [SPE_K70650177]	-4.09%
CC(=O)O[C@]1(C(C)=O)CC[C@H]2[C@@H]3CCC4=CC(=O)CCC4=C3[C@@H](c3ccc(N(C)C)cc3)C[C@@]21C [SPE_K76197012]	-4.74%
Fc1ccc(-c2c3cccc(C(F)(F)F)c3nn2Cc2ccc(F)cc2Cl)cc1 [SPE_K54520417]	-2.25%

Structure (SMILES)	activation at 10 µM
NCC(CS(=O)(=O)O)c1ccc(Cl)cc1 (centres unmarked) [SPE_A24122750]	-1.21%
Clc1ccc(C(Cn2ccnc2)OCc2c(Cl)cccc2Cl)c(Cl)c1 (centres unmarked) [SPE_A93353767]	0.354%
CC(C)n1cnc2c(C(=O)N[C@H]3CN4CCC3CC4)cc(Cl)cc21 [SPE_K80725821]	0.494%
COc1cc2ncn(-c3cc(OCc4ccccc4C(F)(F)F)c(C(N)=O)s3)c2cc1OC [SPE_K90382497]	-7.16%
Cc1[nH]c2ccc(F)cc2c1-c1nc2c3cccnc3c3ncccc3c2[nH]1 [SPE_K68003372]	-0.56%
COc1ccc(C2C(=O)c3ccccc3C2=O)cc1 [SPE_K47458712]	-11.2%
CC(C)C[C@H](NC(=O)CNC(=O)c1cc(Cl)ccc1Cl)B1OC(=O)C(CC(=O)O)(CC(=O)O)O1 [SPE_K15203492]	-7.87%
CC(=O)NC1[C@@H](O)OC(CO)[C@@H](O)[C@H]1O (some centres unmarked) [SPE_A92872453]	-7.39%
Cc1c(N(C)C)c(=O)n(-c2ccccc2)n1C [SPE_K12568846]	-3.72%
C=CC(C)(O)CCC=C(C)C (centres unmarked) [SPE_A43082461]	-7.7%
COc1cccc(-c2cc(=O)c3ccccc3o2)c1N [SPE_K62810658]	2.96%
Cc1ccc(C(=O)Nc2ccc(CN3CCN(C)CC3)c(C(F)(F)F)c2)cc1C#Cc1cnc2[nH]ncc2c1 [SPE_K35329391]	-3.83%
O=C(O)c1cn(-c2ccc(F)cc2)c2cc(N3CCNCC3)c(F)cc2c1=O [SPE_K08525451]	-3.13%
CC(C)Oc1ccc2c(=O)c3cc(C(=O)O)ccc3oc2c1 [SPE_K59339270]	-2.83%
COc1ccccc1N1CCN(CCCCN2C(=O)c3ccccc3C2=O)CC1 [SPE_K69195780]	-5.05%
N=C(N)NC(=O)c1cnccn1 [SPE_K61693562]	-1.49%
CCCCc1nc(Cl)c(C(=O)O)n1Cc1ccc(-c2ccccc2-c2nnn[nH]2)cc1 [SPE_K23533833]	4.67%
NCCCCN [SPE_K75282878]	0.35%
CC(=O)Nc1ccc(S(=O)(=O)Nc2ccc([N+](=O)[O-])cc2)cc1 [SPE_K76845197]	-3.76%
NCCCCCCCCCCNS(=O)(=O)c1cccc2c(Cl)cccc12 [SPE_K03301001]	2.75%
Nc1ncn([C@@H]2O[C@H](CO)[C@@H](O)[C@H]2O)c(=O)n1 [SPE_K55026842]	-12.3%
C/C(=C\c1csc(C)n1)[C@@H]1C[C@@H]2O[C@]2(C)CCC[C@H](C)[C@H](O)[C@@H](C)C(=O)C(C)(C)[C@@H](O)CC(=O)N1 [SPE_K03601870]	-10.6%
Nc1ncnc2c1ncn2C1CCCO1 (centres unmarked) [SPE_A56987319]	0.343%
CC(=O)Nc1nc(C)c(-c2ccc(Cl)c(S(=O)(=O)NCCO)c2)s1 [SPE_K29395450]	-9.8%
CN(CC[C@@H](Oc1ccc(-c2ccccc2)cc1)c1ccc(F)cc1)CC(=O)O [SPE_K53979406]	-9.75%
CC(C)C[C@@H](C(=O)N[C@@H](Cc1ccc(OCc2ccccc2)cc1)C(=O)NC(C)(C)C)N(C)Cc1ccc(C(C)(C)C)cc1 [SPE_K04426574]	-3.22%
NC(=O)C1=CN([C@@H]2O[C@H](COP(=O)(O)OP(=O)(O)OC[C@H]3O[C@@H](n4cnc5c(N)ncnc54)[C@H](OP(=O)(O)O)[C@@H]3O)[C@@H](O)[C@H]2O)C=CC1 [SPE_M06409173]	-2.48%

Structure (SMILES)	activation at 10 µM
CC(C)Oc1ccc(-c2nc(-c3cccc4c3CC[C@@H]4NCCO)no2)cc1C#N [SPE_K46625559]	-0.603%
COc1cc(-n2c(S)nc3ccccc3c2=O)c(Cl)cc1Cl [SPE_K61128465]	22%
CCCc1c(-c2ccc(O)cc2)nn(-c2ccc(O)cc2)c1-c1ccc(O)cc1 [SPE_K00312224]	1.41%
O=C(Oc1cc(S(=O)(=O)c2ccccc2)ccc1[N+](=O)[O-])c1ccc(Cl)cc1 [SPE_K37933329]	-5.26%
CC(=O)NNC(=O)N1Cc2ccccc2Oc2ccc(Cl)cc21 [SPE_K52512893]	-10.6%
CN(C)c1ccc(C(=C2C=CC(=[N+](C)C)C=C2)c2ccc(N(C)C)cc2)cc1 [SPE_K60025295]	5.79%
O=C1NC(=O)c2c1c1c3ccccc3[nH]c1c1[nH]c3ccccc3c21 [SPE_K72726508]	12.7%
Cc1ccc(-n2sc(=O)n(Cc3ccc(F)cc3)c2=O)cc1 [SPE_K08893438]	8.86%
CCN(CCCOc1ccc2c(Nc3cc(CC(=O)Nc4cccc(F)c4)[nH]n3)ncnc2c1)CCOP(=O)(O)O [SPE_K31928526]	-11.2%
CC(=O)Nc1ccc(CC(=O)O)cc1 [SPE_K33483813]	2.74%
CC(=O)Nc1nc2c(Oc3cc(-c4ccc(C(F)(F)F)cc4)ncn3)cccc2s1 [SPE_K34185671]	-12.4%
CC(CCc1ccccc1)NC(C)C(O)c1ccc(O)cc1 (centres unmarked) [SPE_A36267905]	-4.99%
CCC/C=C1\OC(=O)C2=C1CCC=C2 [SPE_K48875051]	-12.3%
NC[C@H](CC(=O)O)c1ccc(Cl)cc1 [SPE_K62353271]	-10.2%
c1ccc(Cn2c(-c3ccc(OC[C@H](C4CCNCC4)n4c(-c5ccccc5)nc5ccccc54)cc3)nc3ccccc32)cc1 [SPE_K90830492]	1.3%
C[C@@H](C1=C(CCN(C)C)Cc2ccccc21)c1ccccn1 [SPE_K83192048]	11.3%
CCOC(=O)C1=C[C@]2(CC)CCCN3CCc4c(n1c1ccccc41)[C@@H]32 [SPE_K53318339]	-10.5%
N#Cc1cc(F)cc(-c2nc(-c3ccc(F)cn3)no2)c1 [SPE_K61043483]	1.97%
N#Cc1cccc(-c2nc(-c3cccnc3)no2)c1 [SPE_K40176866]	-7.54%
COc1ccc(-c2cc(=O)c3c(OC)c(OC)c(OC)c(OC)c3o2)cc1OC [SPE_K06753942]	17.9%
CCCCOc1nc(N)c2c(n1)N(Cc1cccc(CN3CCCC3)c1)CC(=O)N2 [SPE_K73585091]	-10.5%
C[C@]12C=CC(=O)C=C1CCC1C2[C@@H](O)C[C@@]2(C)C1CC[C@]2(O)C(=O)COC(=O)CCC(=O)O (some centres unmarked) [SPE_A78391468]	3.52%
Cc1cc2sc(NC(=O)Cc3ccccc3)nc2cc1Cl [SPE_K47409078]	0.438%
C=CCc1ccc(O)c(-c2ccc(O)c(CC=C)c2)c1 [SPE_K98493452]	-13.9%
CCCCCCCCCCCCCCCCCCCCCC(=O)Nc1ccn([C@@H]2O[C@H](CO)[C@@H](O)[C@@H]2O)c(=O)n1 [SPE_K32007074]	-0.592%
C[C@@H]1C[C@H]2[C@@H]3CCC4=CC(=O)C=C[C@]4(C)[C@@]3(F)[C@@H](O)C[C@]2(C)[C@@]1(O)C(=O)CO [SPE_A10188456]	-8.72%
